Measured values as given in patent publication US20120022056A1, “FUSED TRICYCLIC DERIVATIVES FOR THE TREATMENT OF PSYCHOTIC DISORDERS” (priority 2005, published 2012).
Where a name gives a salt, the structure may show the parent alone.

molecular target: T1, 5-HT1A receptor (Homo sapiens, UniProt P08908); assay: GTPγS binding functional potency assay (primary screen), 5-HT1A; assay type: biochemical; settings: assay a), membranes of HEK293 cells transfected with human 5-HT1A, read-out: fpKi at the 5-HT1A receptor
T1 construct: expressed in transfected cells; host or cells: HEK293 (membranes)
T1 sequence (P08908 1-422): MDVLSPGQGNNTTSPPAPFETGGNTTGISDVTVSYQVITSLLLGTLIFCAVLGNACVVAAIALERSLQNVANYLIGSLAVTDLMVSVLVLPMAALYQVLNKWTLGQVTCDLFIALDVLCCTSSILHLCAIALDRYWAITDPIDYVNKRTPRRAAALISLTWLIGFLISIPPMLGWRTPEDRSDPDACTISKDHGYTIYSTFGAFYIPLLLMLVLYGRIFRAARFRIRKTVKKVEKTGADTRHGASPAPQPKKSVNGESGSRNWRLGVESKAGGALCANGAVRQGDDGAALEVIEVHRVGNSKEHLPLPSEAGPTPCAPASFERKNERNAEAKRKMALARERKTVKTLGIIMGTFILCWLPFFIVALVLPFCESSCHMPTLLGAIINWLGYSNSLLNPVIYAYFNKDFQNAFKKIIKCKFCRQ
Procedure: a) Functional Potency—Primary Screen
The functional potency may be determined by the following GTPγS binding protocol. Cells used in the study are CHO Cells and Human Embryo Kidney (HEK293). Cells were transfected with DNA coding for human receptors as follows: HEK293—5-HT1A; CHO—5-HT1B; and CH—5-HT1D. Test compounds were initially dissolved in 100% dimethyl sulfoxide to a concentration of 10 mM. Serial dilution of the test compounds in 100% dimethyl sulphoxide was carried out using a Biomek FX in 384 well assay plates, so that the final top concentration of test compound is 3 μM in the assay. Add the test compound at 1.0% total assay volume (TAV) to a solid, white, 384 well assay plate (Costar). Add 50% TAV of precoupled (for 90 mins @ RT) membranes (5 ug/well), Wheatgerm Agglutinin Polystyrene Scintillation Proximity Assay beads (RPNQ0260 Amersham International) (0.25 mg/well) in 20 mM HEPES pH 7.4, 100 mM NaCl, 3 mM MgCl2 and 10 μM GDP. The third addition was a 20% TAV addition of either buffer, agonist format, or EC80 final assay concentration (FAC) of agonist, 5HT antagonist format, prepared in assay buffer. The assay was started by the addition of 29% TAV of GTPγS 0.38 nM FAC. After all additions assay plates were incubated at RT for 2-3 hours. Assay plates were counted on a Viewlux, 613/55 filter for 5 mins. Assay plates were read between 2-6 hours after the final addition.

Ki, < 0.01 µM:
Cc1ccc2c(N3CCN(CCc4cccc5c4ccc4c(-c6nc(C)no6)ncn45)[C@H](C)C3)cccc2n1 [Example 105, 6-{2-[(2R)-2-methyl-4-(2-methyl-5-quinolinyl)-1-piperazinyl]ethyl}-3-(3-methyl-1,2,4-oxadiazol-5-yl)imidazo[1,5-a]quinoline dihydrochloride]
Cc1ccc2c(C3CCN(CCc4c(C)ccc5c4OCc4c(C(N)=O)ncn4-5)CC3)cccc2n1 [Example 125, 7-methyl-6-{2-[4-(2-methyl-5-quinolinyl)-1-piperidinyl]ethyl}-4H-imidazo[5,1-c][1,4]benzoxazine-3-carboxamide dihydrochloride]
CNC(=O)c1ncn2c1COc1c-2ccc(C)c1CCN1CCC(c2cccc3nc(C)ccc23)CC1 [Example 124, N,7-dimethyl-6-{2-[4-(2-methyl-5-quinolinyl)-1-piperidinyl]ethyl}-4H-imidazo[5,1-c][1,4]benzoxazine-3-carboxamide dihydrochloride]
CNC(=O)c1ncn2c1ccc1c(CCN3CCC(c4cccc5nc(C)ccc45)CC3)cccc12 [Example 89, N-methyl-6-{2-[4-(2-methyl-5-quinolinyl)-1-piperidinyl]ethyl}imidazo[1,5-a]quinoline-3-carboxamide dihydrochloride]
CCOC(=O)c1nnn2c1ccc1c(CCN3CCN(c4cccc5nc(C)ccc45)CC3)cccc12 [Example 97, ethyl 6-{2-[4-(2-methyl-5-quinolinyl)-1-piperazinyl]ethyl}[1,2,3]triazolo[1,5-a]quinoline-3-carboxylate dihydrochloride]
Cc1ccc2c(C3CCN(CCc4cccc5c4ccc4c(C(N)=O)ncn45)CC3)cccc2n1 [Example 91, 6-{2-[4-(2-methyl-5-quinolinyl)-1-piperidinyl]ethyl}imidazo[1,5-a]quinoline-3-carboxamide dihydrochloride]
CNC(=O)c1ncn2c1CCc1c(CCN3CCC(c4cccc5nc(C)ccc45)CC3)cccc1-2 [Example 83, N-methyl-6-{2-[4-(2-methyl-5-quinolinyl)-1-piperidinyl]ethyl}-4,5-dihydroimidazo[1,5-a]quinoline-3-carboxamide dihydrochloride]
Cc1ccc2c(N3CCN(CCc4cccc5c4ccc4nnnn45)[C@H](C)C3)cccc2n1 [Example 94, 6-{2-[(2R)-2-methyl-4-(2-methyl-5-quinolinyl)-1-piperazinyl]ethyl}tetrazolo[1,5-a]quinoline dihydrochloride]
Cc1ccc2c(C3CCN(CCc4cccc5c4CCc4c(C(N)=O)ncn4-5)CC3)cccc2n1 [Example 122, 6-{2-[4-(2-methyl-5-quinolinyl)-1-piperidinyl]ethyl}-4,5-dihydroimidazo[1,5-a]quinoline-3-carboxamide dihydrochloride]
